Source: patent publication US6943181B2, “Use of substituted gamma-lactone compounds as pharmaceutical preparations” (Grunenthal GmbH, priority 2001, dated 2005)

Biological target: T1, nitrogen monoxide synthase (NO synthase) (Rattus norvegicus, UniProt P29476)
T1 construct: the supernatant was then decanted off and frozen in portions; from tissue; host or cells: rat cerebellum (homogenate, 20,000 g supernatant)
Assay: HTS-NOS assay (nitrogen monoxide synthase assay)
Format: biochemical
Settings: compound at 10 μM; enzyme preparation from rat cerebella; [3H]-arginine substrate
From the text: This assay makes it possible to determine the percentage inhibition of NO synthase by a compound of the general formula I used according to the invention by measuring NOS activity on exposure to the compound. NO synthase is here mixed under suitable conditions together with radioactively labelled arginine and the particular compound of the general formula I. After termination of the NO formation reaction at a predetermined time, the quantity of unconverted arginine is directly or indirectly determined. […] This assay may be carried out at follows: • (a) Incubation of the NO synthase with labelled arginine as the substrate in a reaction vessel, • (b) Separation of the labelled arginine from the labelled citrulline optionally arising as a product of the enzymatic reaction at a time at which the concentration of citrulline is rising, • (c) Measurement of the quantity of arginine separated in each case.
Separation is performed by means of a filter plate membrane.
Radioactive arginine is used as the substrate in this HTS-NOS assay. Depending on the type of microtitre plate (MTP), the assay volume may be selected in the range between 25 μl and 250 μl. Depending on the enzyme source used, cofactors and coenzymes are added. The batches are incubated in this microtitre plate (assay MTP) according to step (a) at room temperature and, depending on the enzyme activity used (units), lasts between 5 and 60 minutes. On completion of incubation (step (a)), the plate is placed in a cell harvester, which is equipped with an MTP which has a cation exchange membrane as a filter bottom (filter MTP). All the batches from the assay MTP are transferred into this filter MTP and suction filtered through a cation exchange filter plate, a paper filter loaded with phosphate groups. The filter MTP is then washed with buffer or water. This procedure binds the remaining substrate arginine onto the cation exchanger, while the enzymatically formed radioactive citrulline is quantitatively eluted. Once the filter MTP has been dried and scintillation liquid added, the bound arginine can be counted in the scintillation counter. Low radioactivity indicates an uninhibited NOS reaction. An inhibited enzyme reaction means that the radioactive arginine has not been converted. This means that there is a high level of radioactivity on the filter.
• Arginine, L-[2,3,4-^3H]-monohydrochloride; item no. […] The pH value of the buffer was adjusted to 7.4 at 25° C. • Washing medium: H2O Enzyme Preparation
Rat cerebella were used as the starting tissue. The animals were stunned and killed, the brain tissue, the cerebellum, was dissected out, 1 ml of enzyme preparation buffer (4° C.) was added per cerebellum, and the tissue was disrupted for 1 min at 6000 rpm in a Polytron homogeniser. The mixture was then centrifuged at 4° C. for 15 min at 20,000 g, and the supernatant was then decanted off and frozen in portions at −80° C. (discarding the precipitate).
96-Well MTPs with a well capacity of ≦250 μl were used Pipetting sequence: see table 1:
Once the pipetting operation was complete, a lid was laid on top of this MTP (assay MTP). Incubation at 25° C. (room temperature (RT)) for 5-60 min, depending on the quantity and activity of the enzyme used.
The contents of the assay MTP were then transferred with the assistance of a 96 well cell harvester into a 96 well cation exchange MTP (filter MTP) and suction filtered. A single washing with […] of H2O (from a trough) was then performed.
The plate was then dried for 1 h at 60° C. in a drying cabinet. The bottom of the filter MTP was then carefully sealed from beneath with a “back seal”. 35 μl of scintillating material were then pipetted into each well. The top of the plate was also sealed with a “top seal”. After 1 hour's waiting time, the plate was assessed on the β-counter.

Row | Compound | inhibition at 10 µM | NOS (% inhibition)
1 | Cc1cccc(C2(C)CC(Nc3cc(C)cc(C)n3)C(=O)O2)c1 (stereo not shown) [Example 11, 3-(4,6-Dimethyl-pyridin-2-ylamino)-5-methyl-5-m-tolyl-dihydro-furan-2-one] | 81% | 
2 | Cc1cc(C)nc(NC2CC(C)(c3ccc(C(C)(C)C)cc3)OC2=O)c1 (stereo not shown) [Example 22, 5-(4-tert-Butyl-phenyl)-3-(4,6-dimethyl-pyridin-2-yl-amino)-5-methyl-dihydrofuran-2-one] | 44% | 
3 | Cc1cc(C)nc(NC2CC(C)(c3ccc(C(C)C)cc3)OC2=O)c1 (stereo not shown) [Example 28, 3-(4,6-Dimethyl-pyridin-2-ylamino)-5-(4-isopropyl-phenyl)-5-methyl-dihydro-furan-2-one] | 68% | 
4 | Cc1ccnc(NC2CC(C)(c3ccc(C(C)(C)C)cc3)OC2=O)c1[N+](=O)[O-] (stereo not shown) [Example 16, 5-(4-tert-Butyl-phenyl)-5-methyl-3-(4-methyl-3-nitro-pyridin-2-ylamino)-dihydro-furan-2-one] | 47% | 
5 | CC1(c2ccc(C#N)cc2)CC(Nc2ncc(Br)cc2[N+](=O)[O-])C(=O)O1 (stereo not shown) [Example 25, 4-[4-(5-Bromo-3-nitro-pyridin-2-ylamino)-2-methyl-5-oxo-tetrahydro-furan-2-yl]-benzonitrile] | 45% | 
6 | Cc1cc(C)nc(NC2CC(C)(c3ccc(C)cc3C)OC2=O)c1 (stereo not shown) [Example 3, 5-(2,4-Dimethyl-phenyl)-3-(4,6-dimethyl-pyridin-2-ylamino)-5-methyl-dihydro-furan-2-one] | 42% | 
7 | CC1(c2ccc(Oc3ccccc3)cc2)CC(Nc2ncccc2OCc2ccccc2)C(=O)O1 (stereo not shown) [Example 19, 3-(3-Benzyloxy-pyridin-2-ylamino)-5-methyl-5-(4-phenoxy-phenyl)-dihydro-furan-2-one] | 40% | 
8 | Cc1cc(C)cc(C2(C)CC(Nc3cc(C)cc(C)n3)C(=O)O2)c1 (stereo not shown) [Example 5, 5-(3,5-Dimethyl-phenyl)-3-(4,6-dimethyl-pyridin-2-ylamino)-5-methyl-dihydro-furan-2-one] | 58% | 
9 | Cc1cc(C)nc(NC2CC(C)(c3ccc(C4CCCCC4)cc3)OC2=O)c1 (stereo not shown) [Example 4, 5-(4-Cyclohexyl-phenyl)-3-(4,6-dimethyl-pyridin-2-ylamino)-5-methyl-dihydro-furan-2-one] | 45% | 
10 | Cc1cnc(NC2CC(C)(c3ccc(C(C)(C)C)cc3)OC2=O)c(Br)c1 (stereo not shown) [Example 14, 3-(3-Bromo-5-methyl-pyridin-2-ylamino)-5-(4-tert-butyl-phenyl)-5-methyl-dihydro-furan-2-one] | 48% | 
11 | CC1(c2ccc3c(c2)OCO3)CC(Nc2ncccc2[N+](=O)[O-])C(=O)O1 (stereo not shown) [Example 34, 5-Benzo[1,3]dioxol-5-yl-5-methyl-3-(3-nitro-pyridin-2-ylamino)-dihydro-furan-2-one] | 40% | 
12 | CCCc1cccc(NC2CC(C)(c3ccc(C(C)(C)C)cc3)OC2=O)n1 (stereo not shown) [Example 15, 5-(4-tert-Butyl-phenyl)-5-methyl-3-(6-propyl-pyridin-2-ylamino)-dihydro-furan-2-one] | 45% | 
13 | Cc1cc(C)nc(NC2CC(C)(c3cc4ccccc4o3)OC2=O)c1 (stereo not shown) [Example 29, 5-Benzofuran-2-yl-3-(4,6-dimethyl-pyridin-2-ylamino)-5-methyl-dihydro-furan-2-one] | 40% | 
14 | Cc1cc(C)nc(NC2CC(C)(c3ccc(C)c(C)c3)OC2=O)c1 (stereo not shown) [Example 2, 5-(3,4-Dimethyl-phenyl)-3-(4,6-dimethyl-pyridin-2-ylamino)-5-methyl-dihydro-furan-2-one] | 45% | 

The remaining lines, values ahead:

Row | inhibition at 10 µM | NOS (% inhibition) | Compound
15 | 55% |  | Cc1ccnc(NC2CC(C)(c3ccc4c(c3)CCCC4)OC2=O)c1 (stereo not shown) [Example 38, 5-Methyl-3-(4-methyl-pyridin-2-ylamino)-5-(5,6,7,8-tetrahydro-naphthalen-2-yl)-dihydro-furan-2-one]
16 | 70% |  | Cc1nc(NC2CC(C)(c3ccc(I)cc3)OC2=O)ccc1Br (stereo not shown) [Example 54, 3-(5-Bromo-6-methyl-pyridin-2-ylamino)-5-(4-iodo-phenyl)-5-methyl-dihydro-furan-2-one]
17 | 52% |  | COc1ccc(OC)c(C2(C)CC(Nc3ccccn3)C(=O)O2)c1 (stereo not shown) [Example 66, 5-(2,5-Dimethoxy-phenyl)-5-methyl-3-(pyridin-2-ylamino)-dihydro-furan-2-one]
18 | 45% |  | Cc1cccnc1NC1CC(C)(c2ccc(Br)cc2)OC1=O (stereo not shown) [Example 59, 5-(4-Bromo-phenyl)-5-methyl-3-(3-methyl-pyridin-2-ylamino)-dihydro-furan-2-one]
19 | 72% |  | Cc1cc(C)nc(NC2CC(C)(c3ccc(I)cc3)OC2=O)c1 (stereo not shown) [Example 57, 3-(4,6-Dimethyl-pyridin-2-ylamino)-5-(4-iodo-phenyl)-5-methyl-dihydro-furan-2-one]
20 | 54% |  | CC1(c2ccc(Br)cc2)CC(Nc2ccc(Br)cn2)C(=O)O1 (stereo not shown) [Example 47, 5-(4-Bromo-phenyl)-3-(5-bromo-pyridin-2-ylamino)-5-methyl-dihydro-furan-2-one]
21 | 51% |  | COc1ccccc1C1(C)CC(Nc2n[nH]cc2Br)C(=O)O1 (stereo not shown) [Example 63, 3-(4-Bromo-1H-pyrazol-3-ylamino)-5-(2-methoxy-phenyl)-5-methyl-dihydro-furan-2-one]
22 | 53% |  | CC1(c2ccc3c(c2)CCCC3)CC(Nc2ncc(Br)cc2[N+](=O)[O-])C(=O)O1 (stereo not shown) [Example 41, 3-(5-Bromo-3-nitro-pyridin-2-ylamino)-5-methyl-5-(5,6,7,8-tetrahydro-naphthalen-2-yl)-dihydro-furan-2-one]
23 | 44% |  | CC1(c2ccc(I)cc2)CC(Nc2ncccc2OCc2ccccc2)C(=O)O1 (stereo not shown) [Example 55, 3-(3-Benzyloxy-pyridin-2-ylamino)-5-(4-iodo-phenyl)-5-methyl-dihydro-furan-2-one]
24 | 45% |  | CC(C)C1(c2ccccc2)CC(Nc2ccc([N+](=O)[O-])cn2)C(=O)O1 (stereo not shown) [Example 43, 5-Isopropyl-3-(5-nitro-pyridin-2-ylamino)-5-phenyl-dihydro-furan-2-one]
25 | 42% |  | Cc1cc(C)nc(NC2CC(C)(c3ccc4c(c3)CCCC4)OC2=O)c1 (stereo not shown) [Example 35, 3-(4,6-Dimethyl-pyridin-2-ylamino)-5-methyl-5-(5,6,7,8-tetrahydro-naphthalen-2-yl)-dihydro-furan-2-one]
26 | 56% |  | COc1ccc(C2(C)CC(Nc3cc(C)cc(C)n3)C(=O)O2)cc1 (stereo not shown) [Example 73, 3-(4,6-Dimethyl-pyridin-2-ylamino)-5-(4-methoxy-phenyl)-5-methyl-dihydro-furan-2-one]
27 |  | 40% | 3-(5-Bromo-6-methyl-pyridin-2-ylamino)-5-methyl-5-naphthalen-l-yl-dihydro-furan-2-one [Example 53]
28 | 73% |  | Cc1cc(C)nc(NC2CC(C)(c3cccc(Cl)c3)OC2=O)c1 (stereo not shown) [Example 58, 5-(3-Chloro-phenyl)-3-(4,6-dimethyl-pyridin-2-ylamino)-5-methyl-dihydro-furan-2-one]
29 | 41% |  | CC(C)C1(c2ccccc2)CC(Nc2ncc(Br)cc2[N+](=O)[O-])C(=O)O1 (stereo not shown) [Example 42, 3-(5-Bromo-3-nitro-pyridin-2-ylamino)-5-isopropyl-5-phenyl-dihydro-furan-2-one]
30 | 44% |  | CCOC(=O)c1c[nH]nc1NC1CC(C)(c2ccc(I)cc2)OC1=O (stereo not shown) [Example 46, 3-[5-(4-Iodo-phenyl)-5-methyl-2-oxo-tetrahydro-furan-3-ylamino]-1H-pyrazole-4-carboxylic acid ethyl ester]
31 |  | 53% | CCCc1cccc(NC2CC(C)(c3cccc4ccccc34)OC2=O)n1 (stereo not drawn) [Example 49, 5-Methyl-5-naphthalen-l-yl-3-(6-propyl-pyridin-2-ylamino)-dihydro-furan-2-one]
